Laboratory results from patent US20090124640A1, “Pyrrolo[3,2-D]Pyrimidin-4-One Derivative as Myeloperoxidase Inhibitor” (ASTRAZENECA AB, priority 2006, published 2009).

Biological target: T1, human MPO (Homo sapiens, UniProt P05164)
T1 sequence (P05164 49-745): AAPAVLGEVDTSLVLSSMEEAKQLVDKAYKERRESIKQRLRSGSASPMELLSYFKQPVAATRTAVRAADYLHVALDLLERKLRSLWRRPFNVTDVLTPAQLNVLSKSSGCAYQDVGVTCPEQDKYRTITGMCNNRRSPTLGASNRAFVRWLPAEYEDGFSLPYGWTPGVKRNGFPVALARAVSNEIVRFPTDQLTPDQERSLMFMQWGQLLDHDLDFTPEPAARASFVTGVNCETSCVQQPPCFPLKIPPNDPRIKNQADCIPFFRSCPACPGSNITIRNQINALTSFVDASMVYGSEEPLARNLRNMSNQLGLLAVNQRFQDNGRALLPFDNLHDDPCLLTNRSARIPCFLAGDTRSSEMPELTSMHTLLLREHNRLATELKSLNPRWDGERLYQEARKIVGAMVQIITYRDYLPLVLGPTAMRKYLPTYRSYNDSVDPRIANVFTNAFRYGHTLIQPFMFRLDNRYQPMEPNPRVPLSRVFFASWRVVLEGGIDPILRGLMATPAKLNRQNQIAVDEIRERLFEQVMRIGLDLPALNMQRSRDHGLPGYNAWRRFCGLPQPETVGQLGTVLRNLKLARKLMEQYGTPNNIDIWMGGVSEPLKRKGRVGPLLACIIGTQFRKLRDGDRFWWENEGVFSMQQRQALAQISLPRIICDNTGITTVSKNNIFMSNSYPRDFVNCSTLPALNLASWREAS
Assay: MPO inhibition screen (TMB oxidation, absorbance)
Assay type: biochemical
Conditions: at least one version of the screen (compound alone or with added tyrosine, 8 μM final); human MPO 2.5 nM, H2O2 100 μM, pH 6.5
Description: Methods for the determination of MPO inhibitory activity are disclosed in patent application WO 02/090575. The pharmacological activity of compounds according to the invention was tested in the following screen in which the compound was either tested alone or in the presence of added tyrosine:
Assay buffer: 20 mM sodium/potassium phosphate buffer pH 6.5 containing 10 mM taurine and 100 mM NaCl.
Developing reagent: 2 mM 3,3′,5,5′-tetramethylbenzidine (TMB), 200 μM KI, 200 mM acetate buffer pH 5.4 with 20% DMF.
To 10 μl of diluted compounds in assay buffer, 40 μL of human MPO (final concentration 2.5 nM), with or without 20 μM tyrosine (final concentration, if present, 8 μM), was added and the mixture was incubated for 10 minutes at ambient temperature. Then 50 μl of H2O2 (final concentration 100 μM), or assay buffer alone as a control, were added. After incubation for 10 minutes at ambient temperature, the reaction was stopped by adding 10 μl 0.2 mg/ml of catalase (final concentration 18 μg/ml). The reaction mixture was left for an additional 5 minutes before 100 μl of TMB developing reagent was added. The amount of oxidised 3,3′,5,5′-tetramethylbenzidine formed was then measured after about 5 minutes using absorbance spectroscopy at about […]. IC50 values were then determined using standard procedures.

O=c1[nH]c(=S)n(CCO)c2cc[nH]c12 [Example 1, 1-(2-Hydroxyethyl)-2-thioxo-1,2,3,5-tetrahydro-4H-pyrrolo[3,2-d]pyrimidin-4-one]
IC50: < 5 µM
